Values after ≈ are worked out from the molar mass of the structure shown.
Assays:
Format in all cases: functional
[1] = system: Mycobacterium tuberculosis; assay: Antitubercular activity against isoniazid-resistant Mycobacterium tuberculosis assessed as inhibition of bacterial growth after 4 weeks by two-fold dilution technique; conditions: 672 h
[2] = system: Mycobacterium tuberculosis; assay: Antitubercular activity against rifampin and isoniazid-resistant Mycobacterium tuberculosis assessed as inhibition of bacterial growth after 4 weeks by two-fold dilution technique; conditions: 672 h
[3] = system: Mycobacterium tuberculosis; assay: Antitubercular activity against rifampin, isoniazid and streptomycin-resistant Mycobacterium tuberculosis assessed as inhibition of bacterial growth after 4 weeks by two-fold dilution technique; conditions: 672 h
[4] = system: Mycobacterium tuberculosis; assay: Antitubercular activity against rifampin, isoniazid and ethambutol-resistant Mycobacterium tuberculosis assessed as inhibition of bacterial growth after 4 weeks by two-fold dilution technique; conditions: 672 h
[5] = system: Mycobacterium tuberculosis; assay: Antitubercular activity against rifampin, isoniazid, amikacin and ofloxacin-resistant Mycobacterium tuberculosis assessed as inhibition of bacterial growth after 4 weeks by two-fold dilution technique; conditions: 672 h
[6] = system: Mycobacterium tuberculosis; assay: Antitubercular activity against rifampin, isoniazid, kanamycin and ofloxacin-resistant Mycobacterium tuberculosis assessed as inhibition of bacterial growth after 4 weeks by two-fold dilution technique; conditions: 672 h
[7] = system: Mycobacterium tuberculosis; assay: Antitubercular activity against isoniazid-resistant Mycobacterium tuberculosis infected in human THP-1 cells assessed as inhibition of intracellular activity at 20 mg/L after 4 days; conditions: THP-1, 96 h
[8] = system: Mycobacterium tuberculosis; assay: Antitubercular activity against rifampin and isoniazid-resistant Mycobacterium tuberculosis infected in human THP-1 cells assessed as inhibition of intracellular activity at 20 mg/L after 4 days; conditions: THP-1, 96 h
[9] = system: Mycobacterium tuberculosis; assay: Antitubercular activity against rifampin, isoniazid and streptomycin-resistant Mycobacterium tuberculosis infected in human THP-1 cells assessed as inhibition of intracellular activity at 20 mg/L after 4 days; conditions: THP-1, 96 h
[10] = system: Mycobacterium tuberculosis; assay: Antitubercular activity against rifampin, isoniazid and ethambutol-resistant Mycobacterium tuberculosis infected in human THP-1 cells assessed as inhibition of intracellular activity at 20 mg/L after 4 days; conditions: THP-1, 96 h
[11] = system: Mycobacterium tuberculosis; assay: Antitubercular activity against rifampin, isoniazid, amikacin and ofloxacin-resistant Mycobacterium tuberculosis infected in human THP-1 cells assessed as inhibition of intracellular activity at 20 mg/L after 4 days; conditions: THP-1, 96 h
[12] = system: Mycobacterium tuberculosis; assay: Antitubercular activity against rifampin, isoniazid, kanamycin and ofloxacin-resistant Mycobacterium tuberculosis infected in human THP-1 cells assessed as inhibition of intracellular activity at 20 mg/L after 4 days; conditions: THP-1, 96 h
[13] = system: Mycobacterium tuberculosis; assay: Antitubercular activity against isoniazid-resistant Mycobacterium tuberculosis infected in human THP-1 cells assessed as inhibition of intracellular activity at 10 mg/L after 4 days; conditions: THP-1, 96 h
[14] = system: Mycobacterium tuberculosis; assay: Antitubercular activity against rifampin and isoniazid-resistant Mycobacterium tuberculosis infected in human THP-1 cells assessed as inhibition of intracellular activity at 10 mg/L after 4 days; conditions: THP-1, 96 h
[15] = system: Mycobacterium tuberculosis; assay: Antitubercular activity against rifampin, isoniazid and streptomycin-resistant Mycobacterium tuberculosis infected in human THP-1 cells assessed as inhibition of intracellular activity at 10 mg/L after 4 days; conditions: THP-1, 96 h
[16] = system: Mycobacterium tuberculosis; assay: Antitubercular activity against rifampin, isoniazid and ethambutol-resistant Mycobacterium tuberculosis infected in human THP-1 cells assessed as inhibition of intracellular activity at 10 mg/L after 4 days; conditions: THP-1, 96 h
[17] = system: Mycobacterium tuberculosis; assay: Antitubercular activity against rifampin, isoniazid, amikacin and ofloxacin-resistant Mycobacterium tuberculosis infected in human THP-1 cells assessed as inhibition of intracellular activity at 10 mg/L after 4 days; conditions: THP-1, 96 h
[18] = system: Mycobacterium tuberculosis; assay: Antitubercular activity against rifampin, isoniazid, kanamycin and ofloxacin-resistant Mycobacterium tuberculosis infected in human THP-1 cells assessed as inhibition of intracellular activity at 10 mg/L after 4 days; conditions: THP-1, 96 h

Work on `O=C(On1c(-c2ccccc2)nc2ccccc2c1=O)c1cccc(Cl)c1` yielded an MIC [1] of 5 µg/mL (≈ 13.3 µM), an MIC [2] of 5 µg/mL (≈ 13.3 µM) and an MIC [3] of 5 µg/mL (≈ 13.3 µM). For the same compound, the MIC [4] was 5 µg/mL (≈ 13.3 µM), the MIC [5] was 5 µg/mL (≈ 13.3 µM) and the MIC [6] was 5 µg/mL (≈ 13.3 µM).
Work on `COC(=O)c1ccccc1S(=O)(=O)NC(=O)Nc1nc(C)cc(C)n1` [SULFOMETURON METHYL] yielded an MIC [1] of 10 µg/mL (≈ 27.4 µM), an MIC [2] of 10 µg/mL (≈ 27.4 µM) and an MIC [3] of 10 µg/mL (≈ 27.4 µM). The MIC [4] was 10 µg/mL (≈ 27.4 µM), the MIC [5] was 10 µg/mL (≈ 27.4 µM) and the MIC [6] was 10 µg/mL (≈ 27.4 µM). The inhibition at 20 µg/mL [7] was 35.6%, the inhibition at 20 µg/mL [8] was 34.4% and the inhibition at 20 µg/mL [9] was 36.2%. It also gave an inhibition at 20 µg/mL [10] of 35%, an inhibition at 20 µg/mL [11] of 31.8% and an inhibition at 20 µg/mL [12] of 36%. For the same compound, the inhibition at 10 µg/mL [13] was 17.8%, the inhibition at 10 µg/mL [14] was 16.2% and the inhibition at 10 µg/mL [15] was 18.5%. The inhibition at 10 µg/mL [16] was 17%, the inhibition at 10 µg/mL [17] was 15% and the inhibition at 10 µg/mL [18] was 18.8%.
In the case of `O=C(On1c(-c2cccc(F)c2)nc2ccccc2c1=O)c1cccc(F)c1`, the MIC [1] is reported as 2.5 µg/mL (≈ 6.61 µM), the MIC [2] is reported as 2.5 µg/mL (≈ 6.61 µM) and the MIC [3] is reported as 2.5 µg/mL (≈ 6.61 µM). It also gave an MIC [4] of 2.5 µg/mL (≈ 6.61 µM), an MIC [5] of 2.5 µg/mL (≈ 6.61 µM) and an MIC [6] of 2.5 µg/mL (≈ 6.61 µM). For the same compound, the inhibition at 20 µg/mL [7] was 51.3%, the inhibition at 20 µg/mL [8] was 47.5% and the inhibition at 20 µg/mL [9] was 53.4%. For the same compound, the inhibition at 20 µg/mL [10] was 50.4%, the inhibition at 20 µg/mL [11] was 46.2% and the inhibition at 20 µg/mL [12] was 52.2%. It also gave an inhibition at 10 µg/mL [13] of 25.5%, an inhibition at 10 µg/mL [14] of 22.6% and an inhibition at 10 µg/mL [15] of 26.2%. It also gave an inhibition at 10 µg/mL [16] of 24.2%, an inhibition at 10 µg/mL [17] of 22.8% and an inhibition at 10 µg/mL [18] of 26%.
`NNC(=O)c1ccncc1` [ISONIAZID] was tested, and the MIC [1] was greater than 8 µg/mL, the MIC [2] was greater than 8 µg/mL and the MIC [3] was greater than 8 µg/mL. For the same compound, the MIC [4] was greater than 8 µg/mL, the MIC [5] was greater than 8 µg/mL and the MIC [6] was greater than 8 µg/mL.
`O=C(On1c(-c2ccccc2)nc2ccccc2c1=O)c1cccc([N+](=O)[O-])c1` showed an MIC [1] of 5 µg/mL (≈ 12.9 µM), an MIC [2] of 5 µg/mL (≈ 12.9 µM) and an MIC [3] of 5 µg/mL (≈ 12.9 µM). For the same compound, the MIC [4] was 5 µg/mL (≈ 12.9 µM), the MIC [5] was 5 µg/mL (≈ 12.9 µM) and the MIC [6] was 5 µg/mL (≈ 12.9 µM).
In the case of `COc1cccc(-c2nc3ccccc3c(=O)n2OC(=O)c2cccc([N+](=O)[O-])c2)c1`, the MIC [1] is reported as 5 µg/mL (≈ 12 µM), the MIC [2] is reported as 5 µg/mL (≈ 12 µM) and the MIC [3] is reported as 5 µg/mL (≈ 12 µM). It also gave an MIC [4] of 5 µg/mL (≈ 12 µM), an MIC [5] of 5 µg/mL (≈ 12 µM) and an MIC [6] of 5 µg/mL (≈ 12 µM).
`COc1cccc(-c2nc3ccccc3c(=O)n2OC(=O)c2cccc(C(F)(F)F)c2)c1` showed an MIC [1] of 10 µg/mL (≈ 22.7 µM), an MIC [2] of 10 µg/mL (≈ 22.7 µM) and an MIC [3] of 10 µg/mL (≈ 22.7 µM). For the same compound, the MIC [4] was 10 µg/mL (≈ 22.7 µM), the MIC [5] was 10 µg/mL (≈ 22.7 µM) and the MIC [6] was 10 µg/mL (≈ 22.7 µM).
`CO[C@H]1/C=C/O[C@@]2(C)Oc3c(C)c(O)c4c(O)c(c(/C=N/N5CCN(C)CC5)c(O)c4c3C2=O)NC(=O)/C(C)=C\C=C\[C@H](C)[C@H](O)[C@@H](C)[C@@H](O)[C@@H](C)[C@H](OC(C)=O)[C@@H]1C` [RIFAMPIN] gave an MIC [1] of 0.4 µg/mL (≈ 0.486 µM), an MIC [2] greater than 8 µg/mL and an MIC [3] greater than 8 µg/mL. It also gave an MIC [4] greater than 8 µg/mL, an MIC [5] greater than 8 µg/mL and an MIC [6] greater than 8 µg/mL.

From ChEMBL document CHEMBL3425445, “Synthesis, crystal structure and biological evaluation of substituted quinazolinone benzoates as novel antituberculosis agents targeting acetohydroxyacid synthase” (Eur J Med Chem, 2015)
